Experimental data published in paper PMC10636171 (Cell Death & Disease, 2023).

What was measured:
c-Met kinase = biological target: T1, c-Met kinase (Homo sapiens, UniProt P08581); assay: HTRF kinase assay; assay type: biochemical
T1 construct: purchased Invitrogen
Protocol: (§1) HTRF kinase assay to test the activity of compound 1D228 on c-Met and NTRK kinases: c-Met, TRKA, TRKB and TRKC as well as the Zˊ-Lyte kinase Kit were purchased from Invitrogen. The experiments were performed according to the instructions of the manufacturer. Concentrations consisting of 2 or 10 levels from 0.001 to 1 mM were used for 1D228. Plate was measured on multifunction microplate reader (Molecular Devices, Flex Station 3). Curve fitting and data presentations were performed using Graph Pad Prism version 5.0. Every experiment was repeated at least 3 times.

TRKB [1] = biological target: T2, TRKB (Homo sapiens, UniProt Q16620); assay: HTRF kinase assay; assay type: biochemical
T2 construct: purchased Invitrogen
Protocol: as §1

TRKC [2] = biological target: T3, TRKC (Homo sapiens, UniProt Q16288); assay: HTRF kinase assay; assay type: biochemical
T3 construct: purchased Invitrogen (c-Met, TRKA, TRKB, TRKC)
Protocol: as §1

TRKA [3] = biological target: T4, TRKA (Homo sapiens, UniProt P04629); assay: HTRF kinase assay; assay type: biochemical
T4 construct: purchased Invitrogen (c-Met, TRKA, TRKB, TRKC)
Protocol: as §1

DDR1 = biological target: T5, DDR1 (Homo sapiens, UniProt Q08345); assay: HTRF/ADP-Glo kinase selectivity panel; assay type: biochemical; settings: 500 nM, read-out: 1D228(%inhibition)@500nM
T5 construct: purchased Invitrogen (c-Met, TRKA, TRKB, TRKC)
Protocol: (§2) The compound was serial diluted from 10 mM stock in DMSO, dilute the test compound to 0.1 mM (200 times the specified test concentration). 2 × ATP & Substrate solution and 2 × kinase & Metal solution were prepared using assay buffer; Transfer 25 nL compound to 384 assay plate by Echo 655; After centrifugation, add 2.5 μL 2 × kinase/metal ion solution 384 assay plate, and incubate at 25 °C for 10 min. 2 × XL665 & Antibody solution were prepared with detection buffer; 5 μL of Kinase Detection Reagent was added to the well, and incubated for 60 min at 25 °C; The fluorescence signals of 620 nm (Cryptate) and 665 nm (XL665) were read by microtiter plate reader; […]

FYN [a] = biological target: T6, FYN [a] (Homo sapiens, UniProt P06241); assay: HTRF/ADP-Glo kinase selectivity panel; assay type: biochemical; settings: 500 nM, read-out: 1D228(%inhibition)@500nM
T6 construct: purchased Invitrogen (c-Met, TRKA, TRKB, TRKC)
Protocol: as §2

JAK3 = biological target: T7, JAK3 (Homo sapiens, UniProt P52333); assay: HTRF/ADP-Glo kinase selectivity panel; assay type: biochemical; settings: 500 nM, read-out: 1D228(%inhibition)@500nM
T7 construct: purchased Invitrogen (c-Met, TRKA, TRKB, TRKC)
Protocol: as §2

TRKB [4] = biological target: T2, TRKB; assay: HTRF/ADP-Glo kinase selectivity panel; assay type: biochemical; settings: 500 nM, read-out: 1D228(%inhibition)@500nM
Protocol: as §2

TRKC [5] = biological target: T3, TRKC; assay: HTRF/ADP-Glo kinase selectivity panel; assay type: biochemical; settings: 500 nM, read-out: 1D228(%inhibition)@500nM
Protocol: as §2

TIE2 = biological target: T8, TIE2 (Homo sapiens, UniProt Q02763); assay: HTRF/ADP-Glo kinase selectivity panel; assay type: biochemical; settings: 500 nM, read-out: 1D228(%inhibition)@500nM
T8 construct: purchased Invitrogen (c-Met, TRKA, TRKB, TRKC)
Protocol: as §2

EPHA7 = biological target: T9, EPHA7 (Homo sapiens, UniProt Q15375); assay: HTRF/ADP-Glo kinase selectivity panel; assay type: biochemical; settings: 500 nM, read-out: 1D228(%inhibition)@500nM
T9 construct: purchased Invitrogen (c-Met, TRKA, TRKB, TRKC)
Protocol: as §2

FLT4 = biological target: T10, FLT4 (Homo sapiens, UniProt P35916); assay: HTRF/ADP-Glo kinase selectivity panel; assay type: biochemical; settings: 500 nM, read-out: 1D228(%inhibition)@500nM
T10 construct: purchased Invitrogen (c-Met, TRKA, TRKB, TRKC)
Protocol: as §2

RON = biological target: T11, RON (Homo sapiens, UniProt Q04912); assay: HTRF/ADP-Glo kinase selectivity panel; assay type: biochemical; settings: 500 nM, read-out: 1D228(%inhibition)@500nM
T11 construct: purchased Invitrogen (c-Met, TRKA, TRKB, TRKC)
Protocol: as §2

HCK = biological target: T12, HCK (Homo sapiens, UniProt P08631); assay: HTRF/ADP-Glo kinase selectivity panel; assay type: biochemical; settings: 500 nM, read-out: 1D228(%inhibition)@500nM
T12 construct: purchased Invitrogen (c-Met, TRKA, TRKB, TRKC)
Protocol: as §2

EGFR = biological target: T13, EGFR (Homo sapiens, UniProt P00533); assay: HTRF/ADP-Glo kinase selectivity panel; assay type: biochemical; settings: 500 nM, read-out: 1D228(%inhibition)@500nM
T13 construct: purchased Invitrogen (c-Met, TRKA, TRKB, TRKC)
Protocol: as §2

ZAP70 = biological target: T14, ZAP70 (Homo sapiens, UniProt P43403); assay: HTRF/ADP-Glo kinase selectivity panel; assay type: biochemical; settings: 500 nM, read-out: 1D228(%inhibition)@500nM
T14 construct: purchased Invitrogen (c-Met, TRKA, TRKB, TRKC)
Protocol: as §2

JAK2 = biological target: T15, JAK2 (Homo sapiens, UniProt O60674); assay: HTRF/ADP-Glo kinase selectivity panel; assay type: biochemical; settings: 500 nM, read-out: 1D228(%inhibition)@500nM
T15 construct: purchased Invitrogen (c-Met, TRKA, TRKB, TRKC)
Protocol: as §2

ABL2 = biological target: T16, ABL2 (Homo sapiens, UniProt P42684); assay: HTRF/ADP-Glo kinase selectivity panel; assay type: biochemical; settings: 500 nM, read-out: 1D228(%inhibition)@500nM
T16 construct: purchased Invitrogen (c-Met, TRKA, TRKB, TRKC)
Protocol: as §2

CSF1R = biological target: T17, CSF1R (Homo sapiens, UniProt P07333); assay: HTRF/ADP-Glo kinase selectivity panel; assay type: biochemical; settings: 500 nM, read-out: 1D228(%inhibition)@500nM
T17 construct: purchased Invitrogen (c-Met, TRKA, TRKB, TRKC)
Protocol: as §2

FES = biological target: T18, FES (Homo sapiens, UniProt P07332); assay: HTRF/ADP-Glo kinase selectivity panel; assay type: biochemical; settings: 500 nM, read-out: 1D228(%inhibition)@500nM
T18 construct: purchased Invitrogen (c-Met, TRKA, TRKB, TRKC)
Protocol: as §2

TRKA [6] = biological target: T4, TRKA; assay: HTRF/ADP-Glo kinase selectivity panel; assay type: biochemical; settings: 500 nM, read-out: 1D228(%inhibition)@500nM
Protocol: as §2

TYRO3 = biological target: T19, TYRO3 (Homo sapiens, UniProt Q06418); assay: HTRF/ADP-Glo kinase selectivity panel; assay type: biochemical; settings: 500 nM, read-out: 1D228(%inhibition)@500nM
T19 construct: purchased Invitrogen (c-Met, TRKA, TRKB, TRKC)
Protocol: as §2

HER2 = biological target: T20, HER2 (Homo sapiens, UniProt P04626); assay: HTRF/ADP-Glo kinase selectivity panel; assay type: biochemical; settings: 500 nM, read-out: 1D228(%inhibition)@500nM
T20 construct: purchased Invitrogen (c-Met, TRKA, TRKB, TRKC)
Protocol: as §2

KIT = biological target: T21, KIT (Homo sapiens, UniProt P10721); assay: HTRF/ADP-Glo kinase selectivity panel; assay type: biochemical; settings: 500 nM, read-out: 1D228(%inhibition)@500nM
T21 construct: purchased Invitrogen (c-Met, TRKA, TRKB, TRKC)
Protocol: as §2

ROS1 = biological target: T22, ROS1 (Homo sapiens, UniProt P08922); assay: HTRF/ADP-Glo kinase selectivity panel; assay type: biochemical; settings: 500 nM, read-out: 1D228(%inhibition)@500nM
T22 construct: purchased Invitrogen (c-Met, TRKA, TRKB, TRKC)
Protocol: as §2

TXK = biological target: T23, TXK (Homo sapiens, UniProt P42681); assay: HTRF/ADP-Glo kinase selectivity panel; assay type: biochemical; settings: 500 nM, read-out: 1D228(%inhibition)@500nM
T23 construct: purchased Invitrogen (c-Met, TRKA, TRKB, TRKC)
Protocol: as §2

MHCC97H xenograft tumor = MHCC97H xenograft tumor model; assay type: in vivo, BALB/c nude mice; settings: ig, calculated through tumor weight
Protocol: Male BALB/c nude mice (5-week old, 18–20 g) were purchased from Beijing Vital River Laboratory Animal Technology (Beijing Vital River LaboratoryAnimal Technology Co., Ltd., Beijing,China) and allowed to acclimate for 1 week, maintained at constant room temperature and fed a standard rodent chow and water. 1 × 10^7 cells/mL cancer cells grown in logarithmic phase were harvested and resuspended in FBS-free 1640 medium. Then, 100 μL of the cell suspension was subcutaneously injected into the right flank of each mouse. When the tumour volume was reached about 600–800 mm^3, it was removed, minced into small pieces of equal volume (2 × 2 × 2 mm^3), and transplanted subcutaneously into the nude mice. When the tumour volume was reached about 200–400 mm^3, the xenograft tumour-bearing nude mice were randomly allocated to five groups (vehicle-treated, 1D228-2mgd-treated, 1D228-4mgd-treated […] Tepotinib-treated groups, with 6 or 8 mice (The number of mice were determined according to previous experience on xenograft tumor models) per group. Each group was dosed by intragastric administration (ig) for 7–14 days. Tumour volume and body weights were recorded every day after drug treatment. At the end of the observation period, the animals were euthanized by cervical dislocation and the tumour bulks were peeled off conformed to the Guide for the Care and Use of Laboratory Animals as published by the US National Institutes of Health (NIH Publication No. 85-23, revised 1996) and approved by the Institutional Ethics Review Board of Binzhou Medical University. There was no blinding was done during the animal experiment. No animals were excluded from the analysis.

T3 sequence (Q16288 32-839): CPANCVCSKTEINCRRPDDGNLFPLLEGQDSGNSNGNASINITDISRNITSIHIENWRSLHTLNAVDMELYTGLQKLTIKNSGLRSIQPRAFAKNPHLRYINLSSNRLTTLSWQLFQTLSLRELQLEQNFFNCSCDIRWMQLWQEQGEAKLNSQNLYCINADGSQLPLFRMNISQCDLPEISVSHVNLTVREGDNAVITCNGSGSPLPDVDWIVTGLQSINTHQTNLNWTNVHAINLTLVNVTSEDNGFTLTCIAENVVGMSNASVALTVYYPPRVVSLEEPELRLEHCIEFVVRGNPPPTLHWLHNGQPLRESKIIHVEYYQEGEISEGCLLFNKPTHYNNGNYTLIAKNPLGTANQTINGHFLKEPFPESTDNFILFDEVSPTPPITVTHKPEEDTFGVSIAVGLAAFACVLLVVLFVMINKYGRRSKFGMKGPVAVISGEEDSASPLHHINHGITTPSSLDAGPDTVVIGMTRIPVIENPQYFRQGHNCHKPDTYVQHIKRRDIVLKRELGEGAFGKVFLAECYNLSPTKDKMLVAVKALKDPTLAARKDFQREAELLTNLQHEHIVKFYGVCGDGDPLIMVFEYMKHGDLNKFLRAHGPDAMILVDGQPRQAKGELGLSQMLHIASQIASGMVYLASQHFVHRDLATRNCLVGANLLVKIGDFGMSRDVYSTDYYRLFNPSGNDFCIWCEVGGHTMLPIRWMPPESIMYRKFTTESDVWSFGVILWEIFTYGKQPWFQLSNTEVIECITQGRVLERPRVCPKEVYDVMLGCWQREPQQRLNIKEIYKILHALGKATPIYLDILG
T4 sequence (P04629 33-796): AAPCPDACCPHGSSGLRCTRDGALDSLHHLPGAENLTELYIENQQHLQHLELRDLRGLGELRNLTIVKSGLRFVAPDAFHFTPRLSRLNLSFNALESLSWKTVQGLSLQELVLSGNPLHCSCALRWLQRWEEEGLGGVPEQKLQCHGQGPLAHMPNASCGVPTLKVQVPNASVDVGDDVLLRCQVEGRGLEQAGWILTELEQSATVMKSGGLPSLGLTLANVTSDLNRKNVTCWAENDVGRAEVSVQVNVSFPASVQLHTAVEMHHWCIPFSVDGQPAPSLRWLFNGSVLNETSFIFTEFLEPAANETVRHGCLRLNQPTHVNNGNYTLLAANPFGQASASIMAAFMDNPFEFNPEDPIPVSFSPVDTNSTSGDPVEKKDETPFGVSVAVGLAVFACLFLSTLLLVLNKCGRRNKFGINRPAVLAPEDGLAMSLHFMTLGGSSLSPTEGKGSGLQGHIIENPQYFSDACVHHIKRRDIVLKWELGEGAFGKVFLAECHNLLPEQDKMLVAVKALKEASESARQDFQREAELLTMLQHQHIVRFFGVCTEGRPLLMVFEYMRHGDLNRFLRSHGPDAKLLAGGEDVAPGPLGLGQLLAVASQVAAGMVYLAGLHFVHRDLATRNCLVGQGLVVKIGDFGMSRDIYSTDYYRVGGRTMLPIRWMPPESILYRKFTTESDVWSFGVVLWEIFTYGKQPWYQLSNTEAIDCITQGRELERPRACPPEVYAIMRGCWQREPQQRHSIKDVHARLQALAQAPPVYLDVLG
T2 sequence (Q16620 32-822): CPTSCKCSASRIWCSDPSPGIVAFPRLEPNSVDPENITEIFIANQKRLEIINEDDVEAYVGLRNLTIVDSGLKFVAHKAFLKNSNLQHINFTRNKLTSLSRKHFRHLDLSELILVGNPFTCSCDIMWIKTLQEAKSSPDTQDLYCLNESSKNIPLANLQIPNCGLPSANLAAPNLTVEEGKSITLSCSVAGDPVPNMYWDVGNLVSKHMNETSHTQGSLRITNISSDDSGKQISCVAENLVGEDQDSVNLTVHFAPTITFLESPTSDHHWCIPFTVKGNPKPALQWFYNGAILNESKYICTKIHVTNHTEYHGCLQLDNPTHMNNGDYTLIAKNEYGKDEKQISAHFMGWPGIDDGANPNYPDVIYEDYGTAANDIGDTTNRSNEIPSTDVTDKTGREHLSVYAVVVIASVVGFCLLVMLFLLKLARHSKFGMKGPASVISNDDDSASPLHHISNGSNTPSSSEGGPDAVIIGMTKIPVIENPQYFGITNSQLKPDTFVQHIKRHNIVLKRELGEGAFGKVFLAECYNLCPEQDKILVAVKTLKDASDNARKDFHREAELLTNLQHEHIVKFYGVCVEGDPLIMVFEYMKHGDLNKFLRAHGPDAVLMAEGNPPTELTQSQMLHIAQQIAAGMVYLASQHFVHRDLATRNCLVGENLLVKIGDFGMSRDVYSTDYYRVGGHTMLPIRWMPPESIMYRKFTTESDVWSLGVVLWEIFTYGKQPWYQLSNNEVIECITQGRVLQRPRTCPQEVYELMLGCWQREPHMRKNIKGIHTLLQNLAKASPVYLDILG
T21 sequence (P10721 26-976): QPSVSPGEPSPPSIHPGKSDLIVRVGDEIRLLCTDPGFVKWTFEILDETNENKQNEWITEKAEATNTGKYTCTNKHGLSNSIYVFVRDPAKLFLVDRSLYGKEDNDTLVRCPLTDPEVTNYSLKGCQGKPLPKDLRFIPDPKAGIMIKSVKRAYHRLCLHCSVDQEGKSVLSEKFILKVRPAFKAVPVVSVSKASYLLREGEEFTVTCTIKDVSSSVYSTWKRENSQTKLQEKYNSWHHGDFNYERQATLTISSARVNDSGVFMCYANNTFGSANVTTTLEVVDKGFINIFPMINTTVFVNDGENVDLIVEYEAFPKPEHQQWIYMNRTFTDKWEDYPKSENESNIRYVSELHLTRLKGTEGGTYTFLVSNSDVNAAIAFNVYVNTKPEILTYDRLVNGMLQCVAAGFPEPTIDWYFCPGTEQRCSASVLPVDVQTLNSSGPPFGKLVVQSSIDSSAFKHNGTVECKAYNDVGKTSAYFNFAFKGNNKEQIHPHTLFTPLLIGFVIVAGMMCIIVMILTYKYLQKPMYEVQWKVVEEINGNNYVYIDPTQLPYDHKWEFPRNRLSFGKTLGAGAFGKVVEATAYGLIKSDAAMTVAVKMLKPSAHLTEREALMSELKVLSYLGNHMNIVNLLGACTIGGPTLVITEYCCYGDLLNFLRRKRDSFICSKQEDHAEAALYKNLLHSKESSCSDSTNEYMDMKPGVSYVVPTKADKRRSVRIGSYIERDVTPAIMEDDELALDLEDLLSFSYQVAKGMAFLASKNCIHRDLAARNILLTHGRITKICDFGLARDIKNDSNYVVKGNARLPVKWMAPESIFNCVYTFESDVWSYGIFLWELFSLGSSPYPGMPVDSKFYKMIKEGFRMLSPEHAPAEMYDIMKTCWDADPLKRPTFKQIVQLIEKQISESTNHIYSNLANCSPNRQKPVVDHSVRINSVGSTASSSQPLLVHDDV
T7 sequence (P52333 whole entry): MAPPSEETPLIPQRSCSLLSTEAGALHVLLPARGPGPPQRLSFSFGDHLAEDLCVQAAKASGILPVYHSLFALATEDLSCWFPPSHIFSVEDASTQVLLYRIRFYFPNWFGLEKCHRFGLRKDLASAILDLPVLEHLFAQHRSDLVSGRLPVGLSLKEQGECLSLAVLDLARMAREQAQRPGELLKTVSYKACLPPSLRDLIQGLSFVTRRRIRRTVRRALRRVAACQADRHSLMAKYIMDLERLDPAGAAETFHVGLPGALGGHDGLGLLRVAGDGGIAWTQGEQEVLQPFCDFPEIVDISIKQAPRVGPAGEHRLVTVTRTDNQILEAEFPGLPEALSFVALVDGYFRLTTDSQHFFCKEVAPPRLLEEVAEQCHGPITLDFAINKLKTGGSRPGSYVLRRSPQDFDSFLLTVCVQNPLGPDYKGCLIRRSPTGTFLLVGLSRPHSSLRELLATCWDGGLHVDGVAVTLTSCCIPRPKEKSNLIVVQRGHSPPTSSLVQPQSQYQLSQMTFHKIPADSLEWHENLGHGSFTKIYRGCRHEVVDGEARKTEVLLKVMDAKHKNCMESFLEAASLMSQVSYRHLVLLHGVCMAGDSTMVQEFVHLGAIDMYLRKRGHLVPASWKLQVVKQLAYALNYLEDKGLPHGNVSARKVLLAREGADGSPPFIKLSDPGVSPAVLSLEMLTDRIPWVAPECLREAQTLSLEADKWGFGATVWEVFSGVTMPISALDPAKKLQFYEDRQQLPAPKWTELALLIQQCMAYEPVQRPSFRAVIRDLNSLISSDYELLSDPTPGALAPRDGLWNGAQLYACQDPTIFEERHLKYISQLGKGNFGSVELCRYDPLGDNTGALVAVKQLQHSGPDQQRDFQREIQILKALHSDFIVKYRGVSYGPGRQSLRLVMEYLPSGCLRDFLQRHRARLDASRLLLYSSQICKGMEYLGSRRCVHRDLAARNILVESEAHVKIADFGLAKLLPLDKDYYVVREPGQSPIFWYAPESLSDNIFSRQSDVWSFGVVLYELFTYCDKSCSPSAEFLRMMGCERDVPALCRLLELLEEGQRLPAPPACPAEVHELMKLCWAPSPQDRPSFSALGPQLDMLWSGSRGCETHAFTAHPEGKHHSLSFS
T12 sequence (P08631 whole entry): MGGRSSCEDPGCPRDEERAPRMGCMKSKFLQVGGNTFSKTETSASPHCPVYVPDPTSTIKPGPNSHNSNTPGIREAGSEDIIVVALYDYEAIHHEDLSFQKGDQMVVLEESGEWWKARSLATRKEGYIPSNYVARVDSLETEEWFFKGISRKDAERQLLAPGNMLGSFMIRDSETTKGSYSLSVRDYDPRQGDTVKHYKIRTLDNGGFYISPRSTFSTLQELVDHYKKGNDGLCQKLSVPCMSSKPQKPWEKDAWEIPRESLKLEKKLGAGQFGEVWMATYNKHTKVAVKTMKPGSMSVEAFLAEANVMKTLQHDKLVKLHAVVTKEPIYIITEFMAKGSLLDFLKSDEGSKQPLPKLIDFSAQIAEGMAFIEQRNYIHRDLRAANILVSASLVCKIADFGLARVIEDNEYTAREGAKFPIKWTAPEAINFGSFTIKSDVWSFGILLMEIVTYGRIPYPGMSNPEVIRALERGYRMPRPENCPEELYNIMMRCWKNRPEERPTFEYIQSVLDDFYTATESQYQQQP

SMILES: [2H][C@@](C)(c1cccc(-c2ncc(OCC3CCN(C)CC3)cn2)c1)n1nc(-c2cccc(C#N)c2)ccc1=O [1D228]
- IC50 (c-Met kinase): 0.98 nM
- IC50 (TRKB [1]): 23.7 nM
- IC50 (TRKC [2]): 25.5 nM
- IC50 (TRKA [3]): 111 nM
- inhibition at 0.5 µM (DDR1): -11.8%
- inhibition at 0.5 µM (FYN [a]): -7.78%
- inhibition at 0.5 µM (JAK3): 0.193%
- inhibition at 0.5 µM (TRKB [4]): 97.1%
- inhibition at 0.5 µM (TRKC [5]): 99%
- inhibition at 0.5 µM (TIE2): -2.64%
- inhibition at 0.5 µM (EPHA7): -1.36%
- inhibition at 0.5 µM (FLT4): -3.03%
- inhibition at 0.5 µM (RON): 1.38%
- inhibition at 0.5 µM (HCK): -4.06%
- inhibition at 0.5 µM (EGFR): 1.17%
- inhibition at 0.5 µM (ZAP70): -0.66%
- inhibition at 0.5 µM (JAK2): 1.82%
- inhibition at 0.5 µM (ABL2): 4.45%
- inhibition at 0.5 µM (CSF1R): 3.21%
- inhibition at 0.5 µM (FES): 1.05%
- inhibition at 0.5 µM (TRKA [6]): 93.6%
- inhibition at 0.5 µM (TYRO3): 4.2%
- inhibition at 0.5 µM (HER2): 8.78%
- inhibition at 0.5 µM (KIT): -4.5%
- inhibition at 0.5 µM (ROS1): 7.05%
- inhibition at 0.5 µM (TXK): 1.29%
- Tumor growth inhibition (TGI) (MHCC97H xenograft tumor; 2 mg/kg): 81.2%
- Tumor growth inhibition (TGI) (MHCC97H xenograft tumor; 4 mg/kg): 93.4%
- Tumor growth inhibition (TGI) (MHCC97H xenograft tumor; 8 mg/kg): 98.2%
